Measured values: article PMC9898036, “VIP152 is a selective CDK9 inhibitor with pre-clinical in vitro and in vivo efficacy in chronic lymphocytic leukemia” (Leukemia, 2022)

How the values were obtained:
Test in all cases: DiscoverX KINOMEscan kinase profiling (468 assays)
Format in all cases: binding
[1] = target: human kinome (Homo sapiens, UniProt O00329); details: read-out: Percent Control
Summary of the method: (§1)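 DNA-tagged kinases competed for immobilized biotinylated ligands on streptavidin magnetic beads, with bound kinase quantified by qPCR. VIP152 in DMSO was tested against a DMSO control.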

[2] = target: human kinome (Homo sapiens, UniProt O14578); details: CIT; 100 nM; read-out: Percent Control
Summary of the method: as §1

[3] = target: human kinome (Homo sapiens, UniProt O14976); details: GAK; 100 nM; read-out: Percent Control
Summary of the method: as §1

[4] = target: human kinome (Homo sapiens, UniProt O75460); details: ERN1; 100 nM; read-out: Percent Control
Summary of the method: as §1

[5] = target: human kinome (Homo sapiens, UniProt O75716); details: kinase STK16 (Entrez STK16); compound concentration 1000 nM; read-out: Percent Control
Summary of the method: as §1

[6] = target: human kinome (Homo sapiens, UniProt O95382); details: ASK2 (Entrez MAP3K6); 100 nM; read-out: Percent Control
Summary of the method: as §1

[7] = target: human kinome (Homo sapiens, UniProt P10721, D816H); details: KIT(D816H); 100 nM; read-out: Percent Control
Summary of the method: as §1

[8] = target: human kinome (Homo sapiens, UniProt P19525); details: read-out: Percent Control
Sequence of human kinome (Homo sapiens, UniProt P19525) (P19525 whole entry): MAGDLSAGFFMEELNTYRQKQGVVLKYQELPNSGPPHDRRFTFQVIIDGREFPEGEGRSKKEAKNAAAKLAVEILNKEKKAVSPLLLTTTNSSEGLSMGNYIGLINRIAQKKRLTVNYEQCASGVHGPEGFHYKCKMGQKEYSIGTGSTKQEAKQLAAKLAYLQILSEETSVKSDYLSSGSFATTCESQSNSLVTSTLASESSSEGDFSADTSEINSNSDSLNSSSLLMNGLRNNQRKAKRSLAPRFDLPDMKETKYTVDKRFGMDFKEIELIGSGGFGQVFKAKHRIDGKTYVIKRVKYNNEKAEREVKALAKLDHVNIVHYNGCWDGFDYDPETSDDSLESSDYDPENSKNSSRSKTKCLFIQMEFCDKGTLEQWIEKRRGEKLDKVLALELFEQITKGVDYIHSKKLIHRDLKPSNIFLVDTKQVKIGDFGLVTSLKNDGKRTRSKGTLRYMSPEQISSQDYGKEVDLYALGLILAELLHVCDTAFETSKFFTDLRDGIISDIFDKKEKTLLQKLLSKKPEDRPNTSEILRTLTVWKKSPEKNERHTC
Summary of the method: as §1

[9] = target: human kinome (Homo sapiens, UniProt P22607); details: FGFR3; 100 nM; read-out: Percent Control
Summary of the method: as §1

[10] = target: human kinome (Homo sapiens, UniProt P24941); details: CDK2; 100 nM; read-out: Percent Control
Summary of the method: as §1

[11] = target: human kinome (Homo sapiens, UniProt P36888, D835V); details: FLT3(D835V); 100 nM; read-out: Percent Control
Summary of the method: as §1

[12] = target: human kinome (Homo sapiens, UniProt P49137); details: MAPKAPK2; 100 nM; read-out: Percent Control
Summary of the method: as §1

[13] = target: human kinome (Homo sapiens, UniProt P49674); details: CSNK1E; 100 nM; read-out: Percent Control
Summary of the method: as §1

[14] = target: human kinome (Homo sapiens, UniProt P53671); details: LIMK2; 100 nM; read-out: Percent Control
Summary of the method: as §1

[15] = target: human kinome (Homo sapiens, UniProt P78362); details: kinase SRPK2 (Entrez SRPK2); compound concentration 1000 nM; read-out: Percent Control
Summary of the method: as §1

[16] = target: human kinome (Homo sapiens, UniProt Q00526); details: CDK3; 100 nM; read-out: Percent Control
Sequence of human kinome (Homo sapiens, UniProt Q00526) (Q00526 whole entry): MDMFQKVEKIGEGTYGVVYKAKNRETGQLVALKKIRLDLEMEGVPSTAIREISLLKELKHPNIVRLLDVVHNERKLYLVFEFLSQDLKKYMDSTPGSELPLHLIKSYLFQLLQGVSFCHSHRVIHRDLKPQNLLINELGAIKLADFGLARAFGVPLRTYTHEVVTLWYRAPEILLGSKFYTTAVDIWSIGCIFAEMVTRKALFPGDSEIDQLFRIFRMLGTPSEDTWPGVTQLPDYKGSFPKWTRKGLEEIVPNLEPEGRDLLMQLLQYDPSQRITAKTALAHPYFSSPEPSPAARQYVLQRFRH
Summary of the method: as §1

[17] = target: human kinome (Homo sapiens, UniProt Q06418); details: kinase TYRO3 (Entrez TYRO3); compound concentration 1000 nM; read-out: Percent Control
Summary of the method: as §1

[18] = target: human kinome (Homo sapiens, UniProt Q12852); details: DLK (Entrez MAP3K12); 100 nM; read-out: Percent Control
Summary of the method: as §1

[19] = target: human kinome (Homo sapiens, UniProt Q12866); details: MERTK; 100 nM; read-out: Percent Control
Summary of the method: as §1

[20] = target: human kinome (Homo sapiens, UniProt Q13043); details: MST1 (Entrez STK4); 100 nM; read-out: Percent Control
Summary of the method: as §1

[21] = target: human kinome (Homo sapiens, UniProt Q13557); details: CAMK2D; 100 nM; read-out: Percent Control
Summary of the method: as §1

[22] = target: human kinome (Homo sapiens, UniProt Q15303); details: ERBB4; 100 nM; read-out: Percent Control
Summary of the method: as §1

[23] = target: human kinome (Homo sapiens, UniProt Q16512); details: read-out: Percent Control
Sequence of human kinome (Homo sapiens, UniProt Q16512) (Q16512 whole entry): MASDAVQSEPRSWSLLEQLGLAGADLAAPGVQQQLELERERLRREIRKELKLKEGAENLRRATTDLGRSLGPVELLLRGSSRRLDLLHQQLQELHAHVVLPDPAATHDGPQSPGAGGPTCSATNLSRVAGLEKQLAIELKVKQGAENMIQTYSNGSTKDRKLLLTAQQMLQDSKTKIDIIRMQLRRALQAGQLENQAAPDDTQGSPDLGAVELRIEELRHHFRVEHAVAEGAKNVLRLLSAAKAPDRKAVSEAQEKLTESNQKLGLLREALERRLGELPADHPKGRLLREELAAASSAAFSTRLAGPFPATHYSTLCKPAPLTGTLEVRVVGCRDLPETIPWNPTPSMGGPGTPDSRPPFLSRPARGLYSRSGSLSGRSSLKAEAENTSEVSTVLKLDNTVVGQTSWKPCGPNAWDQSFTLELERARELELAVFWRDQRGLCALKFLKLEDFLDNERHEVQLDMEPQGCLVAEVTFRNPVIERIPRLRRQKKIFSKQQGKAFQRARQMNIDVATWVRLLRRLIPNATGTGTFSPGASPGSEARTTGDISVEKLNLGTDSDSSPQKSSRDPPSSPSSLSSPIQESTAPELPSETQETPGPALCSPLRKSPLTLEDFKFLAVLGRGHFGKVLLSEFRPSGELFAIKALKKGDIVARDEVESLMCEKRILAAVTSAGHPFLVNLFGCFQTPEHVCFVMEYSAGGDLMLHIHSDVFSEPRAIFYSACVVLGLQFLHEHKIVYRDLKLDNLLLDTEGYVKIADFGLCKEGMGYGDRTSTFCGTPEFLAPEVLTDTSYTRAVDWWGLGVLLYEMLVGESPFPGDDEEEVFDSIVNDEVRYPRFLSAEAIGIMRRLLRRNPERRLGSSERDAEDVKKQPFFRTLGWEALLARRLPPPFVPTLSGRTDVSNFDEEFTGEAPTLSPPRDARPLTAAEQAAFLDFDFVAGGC
Summary of the method: as §1

[24] = target: human kinome (Homo sapiens, UniProt Q59H18); details: kinase TNNI3K (Entrez TNNI3K); compound concentration 1000 nM; read-out: Percent Control
Summary of the method: as §1

[25] = target: human kinome (Homo sapiens, UniProt Q8TDX7); details: read-out: Percent Control
Sequence of human kinome (Homo sapiens, UniProt Q8TDX7) (Q8TDX7 whole entry): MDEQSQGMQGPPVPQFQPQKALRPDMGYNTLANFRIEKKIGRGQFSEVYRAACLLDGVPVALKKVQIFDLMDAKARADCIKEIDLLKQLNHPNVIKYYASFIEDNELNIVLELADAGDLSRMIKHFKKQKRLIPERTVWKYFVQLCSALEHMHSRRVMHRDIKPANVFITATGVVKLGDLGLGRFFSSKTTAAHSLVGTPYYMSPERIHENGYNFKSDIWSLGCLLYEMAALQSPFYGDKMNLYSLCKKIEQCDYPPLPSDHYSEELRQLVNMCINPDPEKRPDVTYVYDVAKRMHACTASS
Summary of the method: as §1

[26] = target: human kinome (Homo sapiens, UniProt Q96D53); details: ADCK4; 100 nM; read-out: Percent Control
Sequence of human kinome (Homo sapiens, UniProt Q96D53) (Q96D53 whole entry): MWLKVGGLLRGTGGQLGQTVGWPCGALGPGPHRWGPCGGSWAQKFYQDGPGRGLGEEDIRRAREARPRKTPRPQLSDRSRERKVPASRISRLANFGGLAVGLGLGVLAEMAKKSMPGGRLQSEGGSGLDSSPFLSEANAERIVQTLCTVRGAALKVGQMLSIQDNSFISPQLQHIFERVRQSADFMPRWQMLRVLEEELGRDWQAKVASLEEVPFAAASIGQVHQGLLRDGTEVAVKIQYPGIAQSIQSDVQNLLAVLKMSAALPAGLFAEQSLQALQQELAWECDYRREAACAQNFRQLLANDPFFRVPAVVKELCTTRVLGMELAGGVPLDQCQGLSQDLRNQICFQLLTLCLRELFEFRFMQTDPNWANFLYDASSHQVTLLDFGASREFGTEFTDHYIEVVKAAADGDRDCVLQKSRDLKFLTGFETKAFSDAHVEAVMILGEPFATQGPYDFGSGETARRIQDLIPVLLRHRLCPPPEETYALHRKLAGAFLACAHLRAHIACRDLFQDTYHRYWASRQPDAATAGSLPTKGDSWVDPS
Summary of the method: as §1

[27] = target: human kinome (Homo sapiens, UniProt Q99640); details: read-out: Percent Control
Sequence of human kinome (Homo sapiens, UniProt Q99640) (Q99640 whole entry): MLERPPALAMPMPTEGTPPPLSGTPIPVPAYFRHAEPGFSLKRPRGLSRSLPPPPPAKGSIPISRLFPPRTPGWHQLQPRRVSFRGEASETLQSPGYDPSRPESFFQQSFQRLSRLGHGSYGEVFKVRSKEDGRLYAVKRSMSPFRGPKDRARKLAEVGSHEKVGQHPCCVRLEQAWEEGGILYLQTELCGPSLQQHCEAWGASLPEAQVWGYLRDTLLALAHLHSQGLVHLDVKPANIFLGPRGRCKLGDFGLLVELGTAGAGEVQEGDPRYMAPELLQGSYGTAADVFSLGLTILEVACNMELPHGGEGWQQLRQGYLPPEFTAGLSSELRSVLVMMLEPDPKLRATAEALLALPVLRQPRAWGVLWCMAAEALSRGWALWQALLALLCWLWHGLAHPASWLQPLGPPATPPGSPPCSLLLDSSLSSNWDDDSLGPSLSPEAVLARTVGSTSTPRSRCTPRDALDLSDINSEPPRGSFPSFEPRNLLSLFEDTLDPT
Summary of the method: as §1

[28] = target: human kinome (Homo sapiens, UniProt Q99683); details: ASK1 (Entrez MAP3K5); 100 nM; read-out: Percent Control
Summary of the method: as §1

[29] = target: human kinome (Homo sapiens, UniProt Q9UBF8); details: read-out: Percent Control
Sequence of human kinome (Homo sapiens, UniProt Q9UBF8) (Q9UBF8 whole entry): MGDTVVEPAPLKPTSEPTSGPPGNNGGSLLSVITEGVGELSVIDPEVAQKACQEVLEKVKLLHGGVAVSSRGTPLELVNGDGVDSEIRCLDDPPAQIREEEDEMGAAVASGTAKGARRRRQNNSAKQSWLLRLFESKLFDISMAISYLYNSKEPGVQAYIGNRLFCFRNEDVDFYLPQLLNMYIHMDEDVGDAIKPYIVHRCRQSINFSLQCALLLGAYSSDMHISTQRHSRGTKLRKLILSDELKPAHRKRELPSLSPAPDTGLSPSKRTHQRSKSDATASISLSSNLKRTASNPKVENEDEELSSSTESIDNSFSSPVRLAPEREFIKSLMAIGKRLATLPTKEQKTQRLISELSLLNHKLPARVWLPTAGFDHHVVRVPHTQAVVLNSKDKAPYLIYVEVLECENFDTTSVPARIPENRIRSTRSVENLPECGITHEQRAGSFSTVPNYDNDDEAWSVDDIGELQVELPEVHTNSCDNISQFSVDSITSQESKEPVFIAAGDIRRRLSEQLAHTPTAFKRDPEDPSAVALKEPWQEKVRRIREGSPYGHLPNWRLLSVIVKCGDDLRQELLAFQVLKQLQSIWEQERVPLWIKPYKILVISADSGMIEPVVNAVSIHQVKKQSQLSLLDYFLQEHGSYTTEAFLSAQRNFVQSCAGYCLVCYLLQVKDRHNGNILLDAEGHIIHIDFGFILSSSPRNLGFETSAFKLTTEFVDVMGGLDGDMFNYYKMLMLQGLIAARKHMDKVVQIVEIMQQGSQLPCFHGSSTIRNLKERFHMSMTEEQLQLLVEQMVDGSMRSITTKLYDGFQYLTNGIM
Summary of the method: as §1

[30] = target: human kinome (Homo sapiens, UniProt Q9Y616); details: IRAK3; 100 nM; read-out: Percent Control
Summary of the method: as §1

Sequence of human kinome (Homo sapiens, UniProt O00329) (O00329 whole entry): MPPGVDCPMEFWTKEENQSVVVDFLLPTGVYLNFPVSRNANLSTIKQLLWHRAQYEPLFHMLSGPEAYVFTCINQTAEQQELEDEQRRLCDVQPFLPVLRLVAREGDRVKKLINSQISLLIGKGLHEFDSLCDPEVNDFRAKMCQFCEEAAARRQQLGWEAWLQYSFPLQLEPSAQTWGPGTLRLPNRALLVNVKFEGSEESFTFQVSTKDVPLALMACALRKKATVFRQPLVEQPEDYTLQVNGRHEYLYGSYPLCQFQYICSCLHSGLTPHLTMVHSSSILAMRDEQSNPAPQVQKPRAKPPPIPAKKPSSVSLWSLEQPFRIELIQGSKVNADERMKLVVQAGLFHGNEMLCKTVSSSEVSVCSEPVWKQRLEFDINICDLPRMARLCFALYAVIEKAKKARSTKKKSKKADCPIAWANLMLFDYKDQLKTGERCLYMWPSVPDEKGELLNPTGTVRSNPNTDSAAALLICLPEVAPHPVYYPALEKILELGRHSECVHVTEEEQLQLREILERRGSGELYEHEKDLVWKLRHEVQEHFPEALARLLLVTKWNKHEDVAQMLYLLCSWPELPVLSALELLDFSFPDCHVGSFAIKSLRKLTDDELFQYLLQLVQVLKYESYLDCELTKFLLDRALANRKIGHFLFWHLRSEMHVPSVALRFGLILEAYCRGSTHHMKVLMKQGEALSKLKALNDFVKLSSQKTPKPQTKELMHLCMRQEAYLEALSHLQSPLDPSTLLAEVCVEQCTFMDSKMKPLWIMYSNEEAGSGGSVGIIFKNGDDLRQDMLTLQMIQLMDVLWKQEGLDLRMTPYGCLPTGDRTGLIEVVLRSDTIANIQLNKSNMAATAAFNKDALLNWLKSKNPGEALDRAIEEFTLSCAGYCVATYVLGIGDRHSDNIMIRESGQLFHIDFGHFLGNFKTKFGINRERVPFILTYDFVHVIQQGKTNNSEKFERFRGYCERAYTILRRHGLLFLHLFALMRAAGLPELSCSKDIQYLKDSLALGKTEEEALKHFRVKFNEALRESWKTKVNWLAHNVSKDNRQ

Work on COc1cc(F)ccc1-c1cc(Nc2cc(CS(C)(=N)=O)ccn2)ncc1F (stereo not drawn) [VIP152] yielded a remaining binding at 0.1 µM ([1]; PIK3CD, 100 nM) of 100%, a remaining binding at 1 µM ([1]; kinase PIK3CD (Entrez PIK3CD), compound concentration 1000 nM) of 75% and a remaining binding at 0.1 µM [2] of 100%. The remaining binding at 0.1 µM [3] was 79%, the remaining binding at 0.1 µM [4] was 88% and the remaining binding at 1 µM [5] was 44%. It also gave a remaining binding at 0.1 µM [6] of 100%, a remaining binding at 0.1 µM [7] of 100% and a remaining binding at 0.1 µM ([8]; PRKR (Entrez EIF2AK2), 100 nM) of 100%. It also gave a remaining binding at 1 µM ([8]; kinase PRKR (Entrez EIF2AK2), compound concentration 1000 nM) of 100%, a remaining binding at 0.1 µM [9] of 100% and a remaining binding at 0.1 µM [10] of 100%. It also gave a remaining binding at 0.1 µM [11] of 100%, a remaining binding at 0.1 µM [12] of 100% and a remaining binding at 0.1 µM [13] of 95%. For the same molecule, the remaining binding at 0.1 µM [14] was 100%, the remaining binding at 1 µM [15] was 89% and the remaining binding at 0.1 µM [16] was 100%. The remaining binding at 1 µM [17] was 56%, the remaining binding at 0.1 µM [18] was 100% and the remaining binding at 0.1 µM [19] was 100%. For the same molecule, the remaining binding at 0.1 µM [20] was 99%, the remaining binding at 0.1 µM [21] was 100% and the remaining binding at 0.1 µM [22] was 100%. The remaining binding at 0.1 µM ([23]; PKN1, 100 nM) was 100%, the remaining binding at 1 µM ([23]; kinase PKN1 (Entrez PKN1), compound concentration 1000 nM) was 88% and the remaining binding at 1 µM [24] was 27%. The remaining binding at 0.1 µM ([25]; NEK7, 100 nM) was 100%, the remaining binding at 1 µM ([25]; kinase NEK7 (Entrez NEK7), compound concentration 1000 nM) was 94% and the remaining binding at 0.1 µM [26] was 100%. It also gave a remaining binding at 0.1 µM ([27]; PKMYT1, 100 nM) of 100%, a remaining binding at 1 µM ([27]; kinase PKMYT1 (Entrez PKMYT1), compound concentration 1000 nM) of 45% and a remaining binding at 0.1 µM [28] of 100%. It also gave a remaining binding at 0.1 µM ([29]; PIK4CB (Entrez PI4KB), 100 nM) of 100%, a remaining binding at 1 µM ([29]; kinase PIK4CB (Entrez PI4KB), compound concentration 1000 nM) of 95% and a remaining binding at 0.1 µM [30] of 90%.
